Results published in ChEMBL document CHEMBL1201862, “PubChem BioAssay data set” (2004).
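Grown in 96-well plates, cells were treated for 48 hours with each compound at five concentrations. Insufficient inhibition: endpoint recorded as highest concentration tested. GI50 is the concentration that inhibits growth by half.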 Activity calls are given as the source filed them. No stated cut-off is given here; in the data, active = GI50 up to about 1.1 µM and inactive = higher.

Assays:
Test in all cases: growth of human tumour cells (NCI), 48 h
A549 = tested on: A549
BT-549 = tested on: BT-549
COLO 205 = tested on: COLO 205
HL-60 = tested on: HL-60
HOP-62 = tested on: HOP-62
HT-29 = tested on: HT-29
K562 = tested on: K562
MCF7 = tested on: MCF7
NCI-H460 = tested on: NCI-H460
NCI-H522 = tested on: NCI-H522
OVCAR-5 = tested on: OVCAR-5
RPMI-8226 = tested on: RPMI-8226
SK-MEL-2 = tested on: SK-MEL-2
SN12C = tested on: SN12C
SNB-19 = tested on: SNB-19
T47D = tested on: T47D
UO-31 = tested on: UO-31
Hs-578T = tested on: Hs-578T
RXF 393 = tested on: RXF 393
CCRF-CEM = tested on: CCRF-CEM

Measured: GI50

S=C(S)NCCCn1ccnc1
inactive: A549 > 100 µM | BT-549 > 100 µM | COLO 205 > 100 µM | HL-60 > 100 µM | HOP-62 > 100 µM | HT-29 > 100 µM | K562 > 100 µM | MCF7 > 100 µM | NCI-H460 > 100 µM | NCI-H522 > 100 µM | OVCAR-5 > 100 µM | RPMI-8226 > 100 µM | SK-MEL-2 > 100 µM | SN12C > 100 µM | SNB-19 > 100 µM | T47D > 100 µM | UO-31 > 100 µM

O=C(c1ccccc1)c1ccc2c(c1)nc1n2C(c2c(F)cccc2F)SC1 (stereo unspecified)
inactive: A549 22 µM | BT-549 26.7 µM | COLO 205 24.1 µM | HOP-62 34 µM | HT-29 13 µM | Hs-578T 59 µM | MCF7 26.5 µM | NCI-H460 17.1 µM | NCI-H522 34.7 µM | OVCAR-5 25.8 µM | RPMI-8226 30.3 µM | RXF 393 29 µM | SK-MEL-2 18.5 µM | SN12C 18.7 µM | SNB-19 32.1 µM | T47D 4.71 µM | UO-31 11.6 µM

CN(C)CCNC(=O)c1cccc(NC(=O)c2ccccc2)c1[N+](=O)[O-]
inactive: A549 > 100 µM | BT-549 53.8 µM | CCRF-CEM > 100 µM | COLO 205 8.65 µM | HL-60 > 100 µM | HOP-62 > 100 µM | HT-29 25.5 µM | Hs-578T > 100 µM | MCF7 > 100 µM | NCI-H460 93.5 µM | NCI-H522 > 100 µM | OVCAR-5 > 100 µM | SK-MEL-2 > 100 µM | SN12C > 100 µM | SNB-19 > 100 µM | T47D > 100 µM | UO-31 > 100 µM

N#Cc1nc(COCc2ccccc2)oc1N
inactive: A549 > 100 µM | BT-549 29.6 µM | CCRF-CEM 17.9 µM | COLO 205 > 100 µM | HOP-62 > 100 µM | HT-29 > 100 µM | Hs-578T > 100 µM | K562 49.7 µM | MCF7 > 100 µM | NCI-H522 2.97 µM | OVCAR-5 > 100 µM | RPMI-8226 74.8 µM | RXF 393 > 100 µM | SK-MEL-2 > 100 µM | SN12C > 100 µM | SNB-19 > 100 µM | T47D > 100 µM | UO-31 > 100 µM

CC(=O)SSC1(Cl)C(C)(C)C(Cl)(SSC(C)=O)C1(C)C (stereo unspecified)
inactive: A549 73.6 µM | BT-549 > 100 µM | CCRF-CEM 24 µM | COLO 205 > 100 µM | HOP-62 44.3 µM | HT-29 49.4 µM | Hs-578T > 100 µM | MCF7 33.6 µM | NCI-H460 28.5 µM | NCI-H522 38.8 µM | OVCAR-5 > 100 µM | RXF 393 21 µM | SK-MEL-2 > 100 µM | SN12C 77.8 µM | SNB-19 35 µM | T47D 20.8 µM | UO-31 94.8 µM

COCN1C(=O)[C@@H]2CCCN2C(=O)c2cc(Cl)ccc21
inactive: A549 > 100 µM | BT-549 > 100 µM | COLO 205 > 100 µM | HOP-62 > 100 µM | HT-29 > 100 µM | Hs-578T > 100 µM | K562 > 100 µM | MCF7 > 100 µM | NCI-H460 > 100 µM | NCI-H522 > 100 µM | OVCAR-5 > 100 µM | RPMI-8226 > 100 µM | RXF 393 > 100 µM | SK-MEL-2 > 100 µM | SN12C > 100 µM | SNB-19 > 100 µM | T47D > 100 µM | UO-31 > 100 µM

CN(C)c1nncc2[nH]nnc12
inactive: A549 > 100 µM | BT-549 > 100 µM | CCRF-CEM > 100 µM | COLO 205 > 100 µM | HL-60 > 100 µM | HOP-62 > 100 µM | HT-29 > 100 µM | K562 > 100 µM | MCF7 > 100 µM | NCI-H522 > 100 µM | OVCAR-5 > 100 µM | RPMI-8226 > 100 µM | SK-MEL-2 > 100 µM | SN12C > 100 µM | T47D > 100 µM | UO-31 > 100 µM

CN(C)CCN(/C(=N/c1ccccc1)N1CCCC1)c1ccccc1
inactive: A549 58.3 µM | BT-549 > 100 µM | CCRF-CEM 8.69 µM | COLO 205 16.9 µM | HL-60 11.6 µM | HOP-62 23.4 µM | HT-29 5.01 µM | Hs-578T > 100 µM | K562 10.3 µM | MCF7 42.5 µM | NCI-H460 42.4 µM | NCI-H522 16.5 µM | OVCAR-5 > 100 µM | RPMI-8226 22.6 µM | SK-MEL-2 > 100 µM | SN12C 50.5 µM | SNB-19 > 100 µM | T47D > 100 µM | UO-31 21.9 µM

CCNc1nc2c(ncn2C2CC(O)C(COP(=O)(O)O)O2)c(=O)[nH]1 (stereo unspecified)
inactive: A549 > 100 µM | BT-549 > 100 µM | COLO 205 > 100 µM | HL-60 > 100 µM | HOP-62 > 100 µM | HT-29 > 100 µM | Hs-578T > 100 µM | MCF7 > 100 µM | NCI-H460 > 100 µM | NCI-H522 > 100 µM | OVCAR-5 > 100 µM | RPMI-8226 > 100 µM | SK-MEL-2 > 100 µM | SN12C > 100 µM | SNB-19 > 100 µM | T47D > 100 µM

Cc1ccc(S(=O)(=O)N2CCC(=O)c3cc(Br)ccc32)cc1
inactive: A549 13.6 µM | BT-549 13.9 µM | COLO 205 16.9 µM | HOP-62 7.16 µM | HT-29 6.25 µM | K562 4.57 µM | MCF7 4.45 µM | NCI-H460 19.3 µM | NCI-H522 7.93 µM | OVCAR-5 42.4 µM | RPMI-8226 12.2 µM | RXF 393 12.5 µM | SK-MEL-2 10.3 µM | SN12C 12.9 µM | SNB-19 18.4 µM | T47D 23.1 µM | UO-31 10.9 µM

O=[N+]([O-])c1ccc(NN/N=N/c2ccc(-c3nc4ccccc4s3)cc2)c([N+](=O)[O-])c1
inactive: A549 27.7 µM | BT-549 23.8 µM | CCRF-CEM 28.6 µM | COLO 205 16.4 µM | HL-60 16 µM | HOP-62 21.9 µM | HT-29 18.8 µM | Hs-578T 33.5 µM | K562 22.7 µM | NCI-H460 22.3 µM | NCI-H522 25 µM | OVCAR-5 23.8 µM | RXF 393 18.7 µM | SK-MEL-2 21 µM | SN12C 22.6 µM | SNB-19 31.1 µM | T47D 19.1 µM | UO-31 19.1 µM

COc1cc(-c2c[nH]c3ccccc23)nc(-c2c[nH]c3ccccc23)n1
inactive: A549 3.27 µM | BT-549 15.9 µM | CCRF-CEM 1.13 µM | COLO 205 8.32 µM | HL-60 3.43 µM | HOP-62 8.89 µM | HT-29 3.63 µM | Hs-578T 16.3 µM | K562 3.96 µM | MCF7 3.56 µM | NCI-H460 3.08 µM | OVCAR-5 8.13 µM | RPMI-8226 2.8 µM | SK-MEL-2 4.94 µM | SNB-19 5.26 µM | T47D 5.19 µM | UO-31 5.53 µM

COC(=O)c1c2c(cc3c1CC1(Cc4cc5c(cc4C1=O)CCC5)C3)CCC2 (stereo unspecified)
inactive: A549 56.6 µM | BT-549 64.6 µM | CCRF-CEM 11 µM | COLO 205 79.3 µM | HL-60 > 100 µM | HOP-62 34.3 µM | HT-29 37.4 µM | Hs-578T 16.4 µM | K562 7.94 µM | MCF7 24.7 µM | NCI-H460 86.1 µM | NCI-H522 19.9 µM | OVCAR-5 > 100 µM | RPMI-8226 6.79 µM | SK-MEL-2 > 100 µM | SN12C > 100 µM | SNB-19 > 100 µM | T47D 59 µM | UO-31 > 100 µM

COC(=O)C1(Cc2ccc3c(c2)CCC3)Cc2ccccc2C1
inactive: A549 32.5 µM | BT-549 69.5 µM | CCRF-CEM 11.5 µM | COLO 205 25 µM | HL-60 17 µM | HOP-62 43.6 µM | HT-29 22.2 µM | Hs-578T 48.3 µM | K562 11.6 µM | MCF7 32.8 µM | NCI-H460 32.9 µM | NCI-H522 22.5 µM | OVCAR-5 39.3 µM | RPMI-8226 17.9 µM | SK-MEL-2 25.9 µM | SN12C 30.1 µM | SNB-19 48.5 µM | T47D 24.6 µM | UO-31 33.7 µM

Nn1c(Nc2ccc(S(N)(=O)=O)cc2)nnc(/C=C/c2c(O)ccc3ccccc23)c1=O
inactive: A549 28.1 µM | BT-549 14.9 µM | CCRF-CEM 4.03 µM | COLO 205 27.1 µM | HL-60 7.74 µM | HOP-62 20.3 µM | HT-29 19.9 µM | Hs-578T 31 µM | K562 17 µM | MCF7 17.5 µM | NCI-H460 26.7 µM | NCI-H522 13.5 µM | OVCAR-5 21.6 µM | RPMI-8226 10.7 µM | SK-MEL-2 39.8 µM | SN12C 11.6 µM | SNB-19 32.5 µM | T47D 15 µM | UO-31 22.9 µM

N/C(=N\c1ccc(Cl)cc1)c1ccccc1N
inactive: A549 > 100 µM | BT-549 > 100 µM | CCRF-CEM > 100 µM | COLO 205 > 100 µM | HL-60 > 100 µM | HOP-62 > 100 µM | HT-29 > 100 µM | Hs-578T > 100 µM | K562 > 100 µM | MCF7 > 100 µM | NCI-H460 > 100 µM | NCI-H522 > 100 µM | OVCAR-5 > 100 µM | RPMI-8226 > 100 µM | RXF 393 > 100 µM | SNB-19 > 100 µM | UO-31 > 100 µM
